Activity calls are given as the source filed them.
What was measured:
[1] = molecular target: T1, Nucleotide-binding oligomerization domain-containing protein 2 (Homo sapiens, UniProt Q9HC29); experiment: inhibition of NOD2-driven NF-kB reporter – cell-based, luminescence, uHTS, HEK293 (AID 1566); format: functional
[2] = molecular target: T1, Nucleotide-binding oligomerization domain-containing protein 2; experiment: PubChem AID 2334; format: functional
HEK293 [3] = experiment: cells; format: functional, cell-based; settings: Homo sapiens
HEK293 [4] = experiment: cells; settings: Homo sapiens
Cysteine protease ATG4B = molecular target: T2, Cysteine protease ATG4B (Homo sapiens, UniProt Q9Y4P1); format: functional;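 also: Fluorescence-based dose-response confirmation assay measuring inhibition of ATG4B activity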
T2 sequence (Q9Y4P1 whole entry): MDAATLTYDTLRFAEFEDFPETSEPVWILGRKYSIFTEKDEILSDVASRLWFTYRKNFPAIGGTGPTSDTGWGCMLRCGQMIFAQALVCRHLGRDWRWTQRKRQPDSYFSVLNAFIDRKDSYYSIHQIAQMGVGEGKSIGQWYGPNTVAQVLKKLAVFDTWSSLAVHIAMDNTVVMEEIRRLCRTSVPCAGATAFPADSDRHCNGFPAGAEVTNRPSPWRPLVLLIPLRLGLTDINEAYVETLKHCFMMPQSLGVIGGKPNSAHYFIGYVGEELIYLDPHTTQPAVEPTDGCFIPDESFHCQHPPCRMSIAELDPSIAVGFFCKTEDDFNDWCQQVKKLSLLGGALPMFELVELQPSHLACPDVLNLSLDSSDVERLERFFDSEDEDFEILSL

Tumor necrosis factor = Tumor necrosis factor (Homo sapiens, UniProt P01375); experiment: analog potency on TNFa NF-kB signaling – cell-based, revised, SAR follow-up (AID 2337); format: functional
[5] = molecular target: T3, Nucleotide-binding oligomerization domain-containing protein 1 (Homo sapiens, UniProt Q9Y239); experiment: blockers of NOD1 pathway activity – revised, SAR follow-up (AID 2333); format: functional
T3 sequence (Q9Y239 whole entry): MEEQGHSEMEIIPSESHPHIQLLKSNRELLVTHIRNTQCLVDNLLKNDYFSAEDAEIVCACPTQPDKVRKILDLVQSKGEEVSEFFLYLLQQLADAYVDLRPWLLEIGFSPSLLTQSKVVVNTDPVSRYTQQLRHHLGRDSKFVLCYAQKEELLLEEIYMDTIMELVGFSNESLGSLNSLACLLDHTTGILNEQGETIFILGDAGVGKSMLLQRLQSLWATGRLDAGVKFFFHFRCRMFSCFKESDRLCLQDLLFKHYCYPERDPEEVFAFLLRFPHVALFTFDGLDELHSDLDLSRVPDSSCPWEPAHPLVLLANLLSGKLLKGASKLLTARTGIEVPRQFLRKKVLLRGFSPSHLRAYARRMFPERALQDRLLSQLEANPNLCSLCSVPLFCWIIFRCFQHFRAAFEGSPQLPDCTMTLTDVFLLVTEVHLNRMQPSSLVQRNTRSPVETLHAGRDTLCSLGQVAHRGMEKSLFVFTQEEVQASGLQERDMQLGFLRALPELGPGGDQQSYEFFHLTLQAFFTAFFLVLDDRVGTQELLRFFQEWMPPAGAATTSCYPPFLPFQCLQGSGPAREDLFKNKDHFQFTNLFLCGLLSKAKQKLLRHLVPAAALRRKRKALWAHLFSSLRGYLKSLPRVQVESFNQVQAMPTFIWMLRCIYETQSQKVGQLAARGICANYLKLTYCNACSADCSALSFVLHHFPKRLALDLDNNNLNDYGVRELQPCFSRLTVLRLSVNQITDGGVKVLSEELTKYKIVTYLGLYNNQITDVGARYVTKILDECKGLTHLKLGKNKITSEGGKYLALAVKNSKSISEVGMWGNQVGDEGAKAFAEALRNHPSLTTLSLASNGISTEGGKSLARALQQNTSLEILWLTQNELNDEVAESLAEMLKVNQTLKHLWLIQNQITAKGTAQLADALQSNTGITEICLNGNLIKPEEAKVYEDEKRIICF

HEK293 [6] = experiment: NOD2 signaling inhibitors in MDP-stimulated cells, cell-based, uHTS, luminescence (AID 2001); format: functional; settings: Homo sapiens
[7] = viability of uninfected HEp-2 cells – cell-based, HTS, cytotoxicity control for RSV inhibitor project, dose response (AID 2410); format: functional; settings: human respiratory syncytial virus
HEK293 [8] = experiment: inhibition of NOD1-driven NF-kB reporter – cell-based, luminescence, uHTS, primary screen (AID 1578); format: functional; settings: Homo sapiens
HEK293 [9] = experiment: cells; format: functional, cell-based; settings: Homo sapiens; remark: listed apart in the source
Phospholipase A2 = Phospholipase A2 (Homo sapiens, UniProt P04054); format: functional;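 also: confirmatory dose-response counterscreen on phospholipase A2, testing hits that came from an ultra-high-throughput screen for ATG4B inhibitors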
HEK293 [10] = experiment: cells; format: functional, cell-based; settings: Homo sapiens; remark: listed apart in the source
[11] = molecular target: T4, RNA-binding protein pos-1 (Caenorhabditis elegans, UniProt G5EF15); experiment: disruptors of C. elegans POS-1 RNA interaction – biochemical, fluorescence polarization, dose response (AID 1964);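 also: purified POS-1 fused to maltose binding protein made in E. coli; potency of compounds blocking POS-1 binding to fluorescent RNA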
T4 sequence (G5EF15 whole entry): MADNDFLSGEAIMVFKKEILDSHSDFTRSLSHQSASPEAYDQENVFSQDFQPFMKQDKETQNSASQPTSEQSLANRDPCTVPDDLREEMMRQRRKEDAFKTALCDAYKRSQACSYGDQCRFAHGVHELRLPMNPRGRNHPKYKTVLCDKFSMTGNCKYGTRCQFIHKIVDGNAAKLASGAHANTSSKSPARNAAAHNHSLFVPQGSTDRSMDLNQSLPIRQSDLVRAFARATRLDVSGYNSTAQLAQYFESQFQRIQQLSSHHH

Vero = experiment: cells; format: functional; settings: Chlorocebus sabaeus
[12] = viability loss in HeLa cells – cytotoxicity control for MgcRacGAP inhibitor project, dose response (AID 624300); format: functional
[13] = molecular target: T5, Zinc finger protein mex-5 (Caenorhabditis elegans, UniProt Q9XUB2); experiment: potency of MEX-5 RNA-binding blockers – biochemical, C. elegans, fluorescence polarization, dose response (AID 1960)
T5 sequence (Q9XUB2 whole entry): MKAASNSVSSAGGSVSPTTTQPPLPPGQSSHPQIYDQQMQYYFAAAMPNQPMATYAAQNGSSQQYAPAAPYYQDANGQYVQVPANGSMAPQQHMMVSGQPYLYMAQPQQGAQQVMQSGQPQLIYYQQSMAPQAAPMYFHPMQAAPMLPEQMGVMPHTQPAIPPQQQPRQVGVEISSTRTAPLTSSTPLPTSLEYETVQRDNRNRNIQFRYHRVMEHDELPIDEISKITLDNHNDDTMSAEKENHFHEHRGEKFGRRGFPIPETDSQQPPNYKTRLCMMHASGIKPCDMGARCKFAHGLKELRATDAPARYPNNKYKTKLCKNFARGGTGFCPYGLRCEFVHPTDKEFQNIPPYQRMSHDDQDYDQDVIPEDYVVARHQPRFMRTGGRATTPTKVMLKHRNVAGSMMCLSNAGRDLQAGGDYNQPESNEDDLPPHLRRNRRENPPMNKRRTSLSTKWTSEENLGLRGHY

[14] = molecular target: T6, Microphthalmia-associated transcription factor (Homo sapiens, UniProt O75030); experiment: reducers of TRPM1 reporter luminescence, concentration series – cell-based, SK-MEL-5, cherry-picked, set 3, MITF inhibitor project, dose response (AID 493073); format: functional;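 also: SK-MEL-5 melanoma cells with luciferase driven by the MITF target TRPM1 promoter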
T6 sequence (O75030 whole entry): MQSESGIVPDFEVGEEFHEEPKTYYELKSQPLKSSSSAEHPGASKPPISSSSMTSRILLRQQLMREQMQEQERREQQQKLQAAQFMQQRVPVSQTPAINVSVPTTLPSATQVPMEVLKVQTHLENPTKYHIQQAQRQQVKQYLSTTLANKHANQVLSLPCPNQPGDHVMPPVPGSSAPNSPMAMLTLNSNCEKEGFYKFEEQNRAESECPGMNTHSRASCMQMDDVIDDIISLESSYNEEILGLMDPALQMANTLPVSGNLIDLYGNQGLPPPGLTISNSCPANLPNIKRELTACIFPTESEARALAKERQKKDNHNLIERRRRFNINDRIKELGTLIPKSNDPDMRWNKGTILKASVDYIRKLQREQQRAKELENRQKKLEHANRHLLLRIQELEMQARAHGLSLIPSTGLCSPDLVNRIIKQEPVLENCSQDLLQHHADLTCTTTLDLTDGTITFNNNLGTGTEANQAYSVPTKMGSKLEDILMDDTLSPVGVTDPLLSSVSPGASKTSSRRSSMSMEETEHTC

[15] = molecular target: Tyrosine-protein phosphatase non-receptor type 5 (Homo sapiens, UniProt P54829); experiment: PTPN5 enzyme inhibition – biochemical, fluorescence intensity, uHTS hits, confirmation (AID 602372); format: functional; settings: read-out: IC50_Mean
[16] = molecular target: T7, Dual specificity protein phosphatase 3 (Homo sapiens, UniProt P51452); experiment: SAR VHR1 Fluorescent Assay for In Vitro dose response studies Set 2. [Related pubchem assays (depositor defined):AID1654, AID1661, AID1878]; format: functional
[17] = molecular target: Tyrosine-protein phosphatase non-receptor type 11 (Homo sapiens, UniProt Q06124); experiment: PTPN11 enzyme inhibitors – biochemical, selectivity assay for STEP inhibitor project, dose response (AID 602367); format: functional; settings: read-out: IC50_Mean
[18] = molecular target: T8, Tyrosine-protein phosphatase non-receptor type 7 (Homo sapiens, UniProt P35236); experiment: SAR analysis of chemical inhibitors of HePTP using a Fluorescent assay - Set 2. [Related pubchem assays (depositor defined):AID1059, AID1077, AID1661, AID2085, AID521]; format: functional
T8 sequence (P35236 whole entry): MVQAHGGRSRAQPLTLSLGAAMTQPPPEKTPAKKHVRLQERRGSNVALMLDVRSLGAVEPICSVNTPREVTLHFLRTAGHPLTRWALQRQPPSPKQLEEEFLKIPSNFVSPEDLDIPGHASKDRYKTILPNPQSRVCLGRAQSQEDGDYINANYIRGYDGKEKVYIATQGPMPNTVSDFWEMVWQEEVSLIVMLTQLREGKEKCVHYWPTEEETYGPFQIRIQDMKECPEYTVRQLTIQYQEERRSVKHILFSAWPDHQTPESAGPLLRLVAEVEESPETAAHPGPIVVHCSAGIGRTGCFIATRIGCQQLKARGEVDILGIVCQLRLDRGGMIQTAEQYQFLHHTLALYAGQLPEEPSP

[19] = molecular target: T7, Dual specificity protein phosphatase 3; experiment: VHR phosphatase inhibition, dose response, selectivity assay for STEP inhibitor project, biochemical (AID 602374); format: functional; settings: read-out: IC50_Mean

T1 sequence (Q9HC29 whole entry, the tested form may be a part): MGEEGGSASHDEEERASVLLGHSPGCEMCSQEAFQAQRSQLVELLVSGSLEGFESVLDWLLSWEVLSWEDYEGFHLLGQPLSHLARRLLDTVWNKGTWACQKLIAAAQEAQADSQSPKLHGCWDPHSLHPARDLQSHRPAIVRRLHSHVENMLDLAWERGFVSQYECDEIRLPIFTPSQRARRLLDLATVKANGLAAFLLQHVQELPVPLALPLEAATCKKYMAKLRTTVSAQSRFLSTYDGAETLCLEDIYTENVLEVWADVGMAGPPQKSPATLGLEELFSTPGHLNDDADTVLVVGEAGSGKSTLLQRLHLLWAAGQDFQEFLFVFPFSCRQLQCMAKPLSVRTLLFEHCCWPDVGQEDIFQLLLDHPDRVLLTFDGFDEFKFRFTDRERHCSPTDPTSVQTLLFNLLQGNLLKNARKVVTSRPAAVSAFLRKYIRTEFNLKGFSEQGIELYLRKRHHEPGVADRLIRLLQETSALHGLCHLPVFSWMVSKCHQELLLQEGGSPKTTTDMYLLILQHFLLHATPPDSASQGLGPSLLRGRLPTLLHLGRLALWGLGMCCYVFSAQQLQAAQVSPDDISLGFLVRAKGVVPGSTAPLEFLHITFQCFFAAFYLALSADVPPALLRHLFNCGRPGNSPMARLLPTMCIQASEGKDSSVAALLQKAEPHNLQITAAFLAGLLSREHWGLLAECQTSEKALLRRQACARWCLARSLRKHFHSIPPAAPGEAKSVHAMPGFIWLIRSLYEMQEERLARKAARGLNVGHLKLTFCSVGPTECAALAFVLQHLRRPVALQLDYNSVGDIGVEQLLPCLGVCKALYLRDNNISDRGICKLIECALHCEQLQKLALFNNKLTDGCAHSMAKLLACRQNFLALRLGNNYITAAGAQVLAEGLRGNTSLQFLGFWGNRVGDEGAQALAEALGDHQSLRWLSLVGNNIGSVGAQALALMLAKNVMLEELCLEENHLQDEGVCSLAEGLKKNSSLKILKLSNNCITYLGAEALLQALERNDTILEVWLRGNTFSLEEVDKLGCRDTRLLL
T7 sequence (P51452 whole entry): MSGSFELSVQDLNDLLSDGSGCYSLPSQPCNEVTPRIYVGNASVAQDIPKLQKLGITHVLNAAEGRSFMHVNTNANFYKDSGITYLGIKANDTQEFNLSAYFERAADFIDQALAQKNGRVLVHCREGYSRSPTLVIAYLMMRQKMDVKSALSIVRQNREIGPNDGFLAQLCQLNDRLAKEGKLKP
Phospholipase A2, sequence (P04054 whole entry): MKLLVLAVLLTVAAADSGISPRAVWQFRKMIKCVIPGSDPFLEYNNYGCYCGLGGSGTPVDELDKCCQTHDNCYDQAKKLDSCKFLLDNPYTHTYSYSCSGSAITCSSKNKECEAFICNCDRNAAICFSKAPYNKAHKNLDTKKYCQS
Tumor necrosis factor, sequence (P01375 whole entry, the tested form may be a part): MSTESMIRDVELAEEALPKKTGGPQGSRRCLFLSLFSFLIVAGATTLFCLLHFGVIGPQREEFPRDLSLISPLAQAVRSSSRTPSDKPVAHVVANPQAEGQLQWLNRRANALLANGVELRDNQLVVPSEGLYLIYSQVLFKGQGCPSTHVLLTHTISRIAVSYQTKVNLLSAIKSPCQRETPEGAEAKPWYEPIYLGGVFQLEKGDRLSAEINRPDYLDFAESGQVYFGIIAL
Tyrosine-protein phosphatase non-receptor type 5, sequence (P54829 whole entry): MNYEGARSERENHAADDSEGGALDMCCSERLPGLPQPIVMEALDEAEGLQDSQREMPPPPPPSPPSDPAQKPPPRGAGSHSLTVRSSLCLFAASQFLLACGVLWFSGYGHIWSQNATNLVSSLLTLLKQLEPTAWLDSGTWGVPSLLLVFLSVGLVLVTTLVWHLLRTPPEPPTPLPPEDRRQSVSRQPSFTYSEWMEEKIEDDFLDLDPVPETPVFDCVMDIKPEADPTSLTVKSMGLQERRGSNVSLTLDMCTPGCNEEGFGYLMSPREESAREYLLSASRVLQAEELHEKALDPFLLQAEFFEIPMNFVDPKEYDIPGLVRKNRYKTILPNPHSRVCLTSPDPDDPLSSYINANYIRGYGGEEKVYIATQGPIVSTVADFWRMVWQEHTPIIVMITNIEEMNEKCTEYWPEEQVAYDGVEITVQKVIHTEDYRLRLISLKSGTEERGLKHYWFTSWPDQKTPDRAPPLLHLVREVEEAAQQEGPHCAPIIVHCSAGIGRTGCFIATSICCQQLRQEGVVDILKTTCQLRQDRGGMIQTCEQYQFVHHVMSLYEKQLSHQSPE
Tyrosine-protein phosphatase non-receptor type 11, sequence (Q06124 whole entry): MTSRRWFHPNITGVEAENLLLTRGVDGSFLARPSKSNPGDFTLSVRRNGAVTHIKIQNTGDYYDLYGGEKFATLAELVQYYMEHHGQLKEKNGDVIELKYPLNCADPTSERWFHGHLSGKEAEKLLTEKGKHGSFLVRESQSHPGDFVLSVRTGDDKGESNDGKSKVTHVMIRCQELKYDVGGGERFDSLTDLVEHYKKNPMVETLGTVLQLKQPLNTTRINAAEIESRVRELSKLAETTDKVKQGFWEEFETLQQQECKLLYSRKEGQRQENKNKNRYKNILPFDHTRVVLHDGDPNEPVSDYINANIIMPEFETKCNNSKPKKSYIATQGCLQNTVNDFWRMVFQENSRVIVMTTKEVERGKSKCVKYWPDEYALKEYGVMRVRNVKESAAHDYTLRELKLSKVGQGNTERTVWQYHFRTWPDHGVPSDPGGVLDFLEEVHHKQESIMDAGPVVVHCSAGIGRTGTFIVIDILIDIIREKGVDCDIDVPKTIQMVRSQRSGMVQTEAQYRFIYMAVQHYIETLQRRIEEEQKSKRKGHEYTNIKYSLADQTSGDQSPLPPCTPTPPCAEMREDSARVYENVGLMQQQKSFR

| Compound | EC50 [1] | IC50 (HEK293 [3]) | IC50 (HEK293 [6]) | EC50 (HEK293 [8]) | IC50 (HEK293 [9]) | IC50 (HEK293 [10]) | IC50 [16] | IC50 [18] | other results |
| --- | --- | --- | --- | --- | --- | --- | --- | --- | --- |
| O=C(CSc1nc2ccccc2c(=O)n1Cc1ccccc1)Nc1ccc(Br)cc1C(=O)O | 7.92 µM (active) | > 20 µM (inactive) | 10.2 µM (inactive) | 6.11 µM (active) | > 20 µM (inactive) | > 20 µM (inactive) |  |  | IC50 [2]: 7.04 µM (active); IC50 (HEK293 [4]): > 20 µM (inactive); IC50 (Cysteine protease ATG4B): 13.9 µM (active); IC50 (Tumor necrosis factor): 5.7 µM (active); IC50 [5]: 5.99 µM (active); CC50 [7]: 11.1 µM (active); IC50 (Phospholipase A2): 12.1 µM (active) |
| C=CCN1C(=O)NC(=O)/C(=C/C=C/c2ccccc2)C1=O | > 20 µM (inactive) | > 20 µM (inactive) | 12.4 µM (inactive) | > 20 µM (inactive) | > 20 µM (inactive) | 9.21 µM (active) |  |  | EC50 [11]: > 300 µM (not active); CC50 (Vero): > 25 µM (active); CC50 [12]: 75.4 µM (active); EC50 [13]: > 300 µM (not active); AC50 [14]: 5.94 µM (active) |
| CN1CCN(C(S)=Nc2ccc(S(N)(=O)=O)cc2)CC1 |  |  |  |  |  |  | 15.4 µM (active) | 27.4 µM (active) | IC50 [15]: 27.8 µM (inactive); IC50 [17]: 6.54 µM (active); IC50 [19]: 1.32 µM (active) |
| NS(=O)(=O)c1ccc(NC(=S)N2CCN(c3ccccc3)CC2)cc1 |  |  |  |  |  |  | 67.2 µM (active) | 72.8 µM (active) |  |
